Laboratory results: patent US11819549B2, “Pharmaceutical formulation comprising ciclesonide” (Boehringer Ingelheim Vetmedica GmbH, priority 2012, dated 2023)

What was measured:
[1] = buffering capacity of ciclesonide in the ethanolic solution; type: physicochemical; settings: ethanol/water solution acidified with HCl 0.1 M
Experimental: More HCl is added than needed to achieve […] in demineralized water alone due to the buffering capacity of ciclesonide.

[2] = chemical stability of ciclesonide in ethanolic formulation as a function of pHapp; type: physicochemical; settings: pHapp range of 4.0 to 4.6, no buffer
Description: To identify an appropriate pHapp in an ethanolic liquid formulation comprising ciclesonide is a challenge. On the one hand side the stability of ciclesonide is better at higher (more neutral) pH values. However, on the other hand, the pH should not be too high since at low [H^+] values already small amounts of contaminants and decomposition products can cause a relatively large change in pHapp. Furthermore, the use of a buffer for inhalable formulations is undesirable due to the administration of the buffer constituents to the lungs and the possibility of the buffer constituents forming a residue in the inhaler which may affect the spray characteristics of the aerosol. […] The addition of buffer is not necessary to create the advantageous formulation of the present invention.

[3] = taken orally; cited from earlier work

| Molecule | buffering capacity [1] [μmol/g ciclesonide] | chemical stability of ciclesonide [2] | potency relative to cortisol [3] [times] | potency relative to prednisone [3] [times] |
| --- | --- | --- | --- | --- |
| CC(C)C(=O)OCC(=O)C12OC(C3CCCCC3)OC1CC1C3CCC4=CC(=O)C=CC4(C)C3C(O)CC12C [ciclesonide, (11β,16α)-16,17-[[(R)-Cyclohexylmethylene]bis(oxy)]-11-hydroxy-21-(2-methyl-1-oxopropoxy)pregna-1,4-diene-3,20-dione] | −3.6 | chemically stable | – | – |
| dexamethasone | – | – | 27 | 7 |
